Data as given in ChEMBL document CHEMBL4842340, “Development of Cagrilintide, a Long-Acting Amylin Analogue” (J Med Chem, 2021).
Values after ≈ are worked out from the molar mass of the structure shown. *1 amine or outer side, *2 acyl side, *3 side chain or, on linkers, in order; H or OH if unused. Where a SMILES comes first, the peptide text is derived from it. Bridges are numbered along the chain shown (N, C = ends). The star is where a group is joined. C20 diacid = O=C(O)CCCCCCCCCCCCCCCCCCC(=O)*; γGlu = O=C(O)[C@H](CCC(=O)[*:2])N[*:1]; AEEA = NCCOCCOCC(=O)O

How the values were obtained:
[1] = Agonist activity at human AMY3R (CT+RAMP3) expressed in Hollex1 cells incubated for 3 hrs by luminescence assay; assay type: cell-based; conditions: Hollex1, 3 h
[2] = Agonist activity at human calcitonin receptor expressed in BHK570 cells assessed as increase in intracellular cAMP concentration incubated for 3 hrs in absence of albumin by CRE luciferase reporter gene assay; assay type: cell-based; conditions: BHK570, 3 h
Homo sapiens [3] = species: Homo sapiens; assay: Ratio of EC50 for human calcitonin receptor expressed in BHK570 cells to EC50 for human AMY3R (CT+RAMP3) expressed in Hollex1 cells; assay type: cell-based
[4] = Agonist activity at rat AMY3R (CT+RAMP3) expressed in tk-ts13 cells assessed as increase in intracellular cAMP level incuabted for 25 mins by CRE luciferase reporter gene assay; assay type: cell-based; conditions: tk-ts13, 25 min
[5] = Agonist activity at rat calcitonin receptor expressed in BHK-13 cells assessed as increase in intracellular cAMP concentration incubated for 25 mins by CRE luciferase reporter gene assay; assay type: cell-based; conditions: BHK-13, 25 min
Rattus norvegicus [6] = species: Rattus norvegicus; assay: Ratio of EC50 for rat calcitonin receptor expressed in BHK-13 cells to EC50 for rat AMY3R (CT+RAMP3) expressed in tk-ts13 cells; assay type: cell-based
[7] = Displacement of [125I]-amylin from human AMY3R (CTR+RAMP3) expressed in BHK-13 cells measured after 120 mins by scintillation proximity assay; assay type: cell-based
[8] = Displacement of [125I]-calcitonin from human calcitonin receptor expressed in tk-ts 13 cells measured after 120 mins by scintillation proximity assay; assay type: cell-based; conditions: tk-ts13
Homo sapiens [9] = species: Homo sapiens; assay: Ratio of IC50 for displacement of [125I]-calcitonin from human calcitonin receptor expressed in tk-ts 13 cells to IC50 for displacement of [125I]-amylin from human AMY3R (CTR+RAMP3) expressed in BHK-13 cells; assay type: cell-based
[10] = Displacement of [125I]-amylin from rat AMY3R (CTR+RAMP3) expressed in BHK-13 cells measured after 120 mins by scintillation proximity assay; assay type: cell-based
[11] = Displacement of [125I]-calcitonin from rat calcitonin receptor expressed in tk-ts 13 cells measured after 120 mins by scintillation proximity assay; assay type: cell-based; conditions: tk-ts13
Rattus norvegicus [12] = species: Rattus norvegicus; assay: Ratio of IC50 for displacement of [125I]-calcitonin from rat calcitonin receptor expressed in tk-ts 13 cells to IC50 for displacement of [125I]-amylin from rat AMY3R (CTR+RAMP3) expressed in BHK-13 cells; assay type: cell-based
[13] = Solubility of the compound in lactate at pH 3 by UPLC analysis; assay type: physicochemical; conditions: lactate buffer
[14] = Solubility of the compound in lactate at pH 4 by UPLC analysis; assay type: physicochemical; conditions: lactate buffer
[15] = Solubility of the compound in lactate at pH 5 by UPLC analysis; assay type: physicochemical; conditions: lactate buffer
[16] = Solubility of the compound in bis-tris propane at pH 6 by UPLC analysis; assay type: physicochemical; conditions: bis-tris propane buffer
[17] = Solubility of the compound in bis-tris propane at pH 6.5 by UPLC analysis; assay type: physicochemical; conditions: bis-tris propane buffer
[18] = Solubility of the compound in bis-tris propane at pH 7 by UPLC analysis; assay type: physicochemical; conditions: bis-tris propane buffer
[19] = Solubility of the compound in bis-tris propane at pH 7.5 by UPLC analysis; assay type: physicochemical; conditions: bis-tris propane buffer
[20] = Solubility of the compound in bis-tris propane at pH 8 by UPLC analysis; assay type: physicochemical; conditions: bis-tris propane buffer
Insulin (Homo sapiens) [21] = molecular target: Insulin (Homo sapiens) (UniProt P01308); assay: Effect on insulin (unknown origin) amyloid fibril formation assessed as lag time in glycyl-glycine buffer at pH 4 measured after 45 hrs by thioflavin-T fluorescence assay
Insulin (Homo sapiens) [22] = molecular target: Insulin (Homo sapiens) (UniProt P01308); assay: Effect on insulin (unknown origin) amyloid fibril formation assessed as peptide recovery in glycyl-glycine buffer at pH 4 measured after 45 hrs by thioflavin-T fluorescence assay relative to control; set-up: concentration or dose not given beside the values
Rattus norvegicus [23] = assay: Reduction in food intake in Sprague-Dawley rat at 30 nmol/kg, sc administered as single dose measured upto 24 hrs relative to control; assay type: functional; set-up: scale not given: the % may be the effect or the level left; conditions: time hrs <=24
Rattus norvegicus [24] = assay: Reduction in food intake in Sprague-Dawley rat at 30 nmol/kg, sc administered as single dose measured after 24 to 48 hrs relative to control; assay type: functional; set-up: scale not given: the % may be the effect or the level left; conditions: time 24-48 hrs
Rattus norvegicus [25] = assay: Reduction in food intake in Sprague-Dawley rat at 3 nmol/kg, sc administered as single dose measured upto 24 hrs relative to control; assay type: functional; set-up: scale not given: the % may be the effect or the level left; conditions: time hrs <=24
Rattus norvegicus [26] = assay: Reduction in food intake in Sprague-Dawley rat at 3 nmol/kg, sc administered as single dose measured after 24 to 48 hrs relative to control; assay type: functional; set-up: scale not given: the % may be the effect or the level left; conditions: time 24-48 hrs

Chain of Insulin (Homo sapiens) (P01308 whole entry): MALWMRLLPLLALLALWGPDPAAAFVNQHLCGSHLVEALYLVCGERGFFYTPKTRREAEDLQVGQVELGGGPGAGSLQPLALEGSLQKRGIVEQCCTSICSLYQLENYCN

EC50 [1] [nM] | EC50 [2] [nM] | EC50 [4] [nM] | EC50 [5] [nM] | IC50 [7] [nM] | IC50 [8] [nM] | IC50 [10] [nM] | IC50 [11] [nM] | solubility [13] [µM] | solubility [14] [µM] | solubility [15] [µM] | solubility [16] [µM] | solubility [17] [µM] | solubility [18] [µM] | solubility [19] [µM] | solubility [20] [µM] | Compound | Ratio EC50 (Homo sapiens [3]) | Ratio EC50 (Rattus norvegicus [6]) | Ratio IC50 (Homo sapiens [9]) | Ratio IC50 (Rattus norvegicus [12]) | also measured
0.076 | 1.24 | 0.13 | 12.1 | 0.213 | 9.18 | 0.648 | 89.2 | 200 (≈ 1020 µg/mL) | 200 (≈ 1020 µg/mL) | 200 (≈ 1020 µg/mL) | 200 (≈ 1020 µg/mL) | 200 (≈ 1020 µg/mL) | 200 (≈ 1020 µg/mL) | 200 (≈ 1020 µg/mL) | 200 (≈ 1020 µg/mL) | CC[C@H](C)[C@H](NC(=O)[C@@H]1CCCN1C(=O)CNC(=O)[C@H](Cc1ccccc1)NC(=O)[C@H](CC(N)=O)NC(=O)[C@H](CC(N)=O)NC(=O)[C@H](CO)NC(=O)[C@H](CO)NC(=O)[C@H](Cc1cnc[nH]1)NC(=O)[C@H](Cc1cnc[nH]1)NC(=O)[C@H](CC(C)C)NC(=O)[C@H](Cc1ccccc1)NC(=O)[C@H](CC(N)=O)NC(=O)[C@H](C)NC(=O)[C@H](CC(C)C)NC(=O)[C@H](CCCNC(=N)N)NC(=O)[C@H](CCC(N)=O)NC(=O)[C@@H](NC(=O)[C@H](C)NC(=O)[C@@H]1CSSC[C@H](NC(=O)[C@H](CCCNC(=N)N)NC(=O)[C@H](CCCNC(=N)N)NC(=O)[C@H](CCCNC(=N)N)NC(=O)COCCOCCNC(=O)COCCOCCNC(=O)CC[C@H](NC(=O)CCCCCCCCCCCCCCCCCCC(=O)O)C(=O)O)C(=O)N[C@@H](CC(N)=O)C(=O)N[C@@H]([C@@H](C)O)C(=O)N[C@@H](C)C(=O)N[C@@H]([C@@H](C)O)C(=O)N1)[C@@H](C)O)C(=O)N[C@@H](CC(C)C)C(=O)N1CCC[C@H]1C(=O)N1CCC[C@H]1C(=O)N[C@H](C(=O)N[C@@H](CC(N)=O)C(=O)N[C@H](C(=O)NCC(=O)N[C@@H](CO)C(=O)N[C@@H](CCCNC(=N)N)C(=O)N[C@H](C(=O)N[C@@H](Cc1ccc(O)cc1)C(N)=O)[C@@H](C)O)C(C)C)[C@@H](C)O ({C20 diacid-γGlu-AEEA-AEEA}-RRRCNTATCATQRLANFLHHSSNNFGPILPPTNVGSRTY-NH2; disulfide 4-9) | 16 | 93 | 43 | 138 | TIME (Insulin (Homo sapiens) [21]): 45 h; Activity (Insulin (Homo sapiens) [22]): 93%; Activity (Rattus norvegicus [23]): 32%; Activity (Rattus norvegicus [24]): 0%
0.083 | 0.128 | 0.063 | 0.355 | 0.137 | 1.75 | 0.034 | 0.812 | 200 (≈ 891 µg/mL) | 200 (≈ 891 µg/mL) | 200 (≈ 891 µg/mL) | 52 (≈ 232 µg/mL) | 16 (≈ 71.3 µg/mL) | 15 (≈ 66.9 µg/mL) | 58 (≈ 259 µg/mL) | 138 (≈ 615 µg/mL) | CC[C@H](C)[C@H](NC(=O)[C@@H]1CCCN1C(=O)CNC(=O)[C@H](Cc1ccccc1)NC(=O)[C@H](CC(N)=O)NC(=O)[C@H](CC(N)=O)NC(=O)[C@H](CO)NC(=O)[C@H](CO)NC(=O)[C@H](CCC(=O)O)NC(=O)[C@H](Cc1cnc[nH]1)NC(=O)[C@H](CC(C)C)NC(=O)[C@H](Cc1ccccc1)NC(=O)[C@H](CCC(=O)O)NC(=O)[C@H](C)NC(=O)[C@H](CC(C)C)NC(=O)[C@H](CCCNC(=N)N)NC(=O)[C@H](CCC(N)=O)NC(=O)[C@@H](NC(=O)[C@H](C)NC(=O)[C@@H]1CSSC[C@H](NC(=O)[C@H](Cc2cnc[nH]2)NC(=O)CC[C@H](NC(=O)CCCCCCCCCCCCCCCCCCC(=O)O)C(=O)O)C(=O)N[C@@H](CC(N)=O)C(=O)N[C@@H]([C@@H](C)O)C(=O)N[C@@H](C)C(=O)N[C@@H]([C@@H](C)O)C(=O)N1)[C@@H](C)O)C(=O)N[C@@H](CC(C)C)C(=O)N1CCC[C@H]1C(=O)N1CCC[C@H]1C(=O)N[C@H](C(=O)N[C@@H](CC(N)=O)C(=O)N[C@H](C(=O)NCC(=O)N[C@@H](CO)C(=O)N[C@@H](CC(N)=O)C(=O)N[C@H](C(=O)N[C@@H](Cc1ccc(O)cc1)C(N)=O)[C@@H](C)O)C(C)C)[C@@H](C)O ({C20 diacid-γGlu}-HCNTATCATQRLAEFLHESSNNFGPILPPTNVGSNTY-NH2; disulfide 2-7) | 2 | 6 | 13 | 24 | TIME (Insulin (Homo sapiens) [21]): 11 h; Activity (Insulin (Homo sapiens) [22]): 0%; Activity (Rattus norvegicus [23]): 93%; Activity (Rattus norvegicus [24]): 92%; Activity (Rattus norvegicus [25]): 50%; Activity (Rattus norvegicus [26]): 45%
